Results taken from patent publication US20200216492A1, “USE OF C-TERMINALLY EXTENDED PEPTIDES TO DISRUPT INHIBITOR NK CELL RECEPTOR INTERACTIONS WITH MHC I” (La Jolla Institute for Allergy and Immunology, priority 2016, published 2020).
Entries after “also recorded” stand apart in the source; their conditions may differ.

Columns and labels:
KIR2DL1-Fc = KIR2DL1-Fc binding to immobilized HLA-peptide complexes by BLI (Octet RED96); details: 2 μM KIR2DL1-Fc, biotinylated complex on SA sensor tip
Description: Binding to buffer only was used for background subtraction.
Synthetic DNA constructs of KIR3DL1 (HLA-B*57:01) and KIR2DL1 (HLA-C*04:01) are cloned and expressed as Fc-fusion constructs in SF9 insect cells. HLA-B*57:01 and […] are refolded with both core and extending peptides and captured on a Strepavidin sensor chip for SPR analysis or a SA sensor tip for BLI analysis as for HLA-A*02:01. […] KIRDL-Fc fusion proteins are, therefore, used to measure the binding affinity, since their bivalency will increase overall binding affinity. […] Further, KIRDL-Fc fusion proteins are immobilized using an anti-human Fc antibody capture chip (GE Healthcare) and the binding of HLA-tetramers to the immobilized KIRDL receptors measured. This increases affinity even further (tetra-valency versus bivalency). […] The C-terminally extended peptides all disrupt KIR2DL1 binding, regardless of whether they induce the “lysine lift” or the “tyrosine swing” (FIG. 19). […] This is proof of concept that structural alterations around the F pocket of HLA alleles that form the primary binding site for KIRL abrogate receptor binding.

[1] = test system: KIR3DL1 expressing YTS cells; assay: HLA-B*57:01/peptide tetramer staining of KIR3DL1 transfected YTS cells (flow cytometry); type: cell-based; details: KIR3DL1 positive and negative YTS cells; 10, 50 and 100 μg/ml tetramer; 30 min on ice; preliminary study
Method: KIR3DL1 negative (top) and positive (bottom) YTS cells were analyzed for their staining using the indicated HLA-B/peptide tetramer. Binding of the tetramer to KIR3DL1 negative cells likely indicates binding of the tetramer to another receptor, such as 2B4 and, therefore, different KIR transfected cells, such as K562 cells will be used next.
In parallel, whether the HLA-tetramers can stain K562 cells that have been transfected with the corresponding allele-matched KIRDL receptor is tested. Without being limited to any particular theory, it is expected that HLA tetramers presenting the core peptide will stain K562 cells, while staining with tetramers presenting the C-terminally extended peptides is greatly impaired and will overlap with the isotype control. Appropriate anti KIR antibodies are used as positive control (Anti-KIR3DL1 clone DX9 and anti-KIR2DL1 clone HP-MA4 from Biolegend). […]

[2] = test system: HLA-B*58:02 transfected 721.221 cells; assay: Cytotoxicity assay using KIR3DL1 transfected YTS cells and peptide-pulsed 721.221 target cells; type: cell-based; details: peptide 100 μM; KIR3DL1 YTS effectors; E:T 10:1; 2-4 hrs; preliminary study
Method: The ability of KIR3DL1 or KIR2DL1 transfected YTS cells to kill HLA expressing 721.221 target cells is tested. Since YTS cells are devoid of any inhibitory KIR, expression of a single KIR will tolerize YTS cells against the 721.221 target cell expressing the allele-matched HLA-B*58:02 (instead of HLA-B*57:01 used for SPR and crystallography) or HLA-C*04:01. HLA-B*58:02 is identical in sequence in the binding region for KIR3DL1 and reported to bind KIR3DL1 allele. 721.221/HLA-C*04:01 cells expressing a TAP inhibitor as well as the corresponding KIR2DL1 YTS transfectants have been obtained. In these 721.221 cells, peptides have to be loaded on the empty HLA-C on the cell surface. The advantage of this system is that the degree of inhibition can be titrated using different concentration of peptides. Target cell killing is assessed using a europium-based fluorescence killing assay as described (67). In this setup, the antibody IPH2101 serves as a positive control for killing, and the efficacy of extending peptides to induce killing is compared. IPH2101 is expressed, for which the sequence is available (Patent application: PCT/US2013/063068), similar to Fc fusion proteins in insect cells. […]
Cytotoxicity assay using KIR transfected YTS cells (FIG. 21) has been established. […] Finally, fluorescence was measured in a Perkin Elmer EnVision™ time-resolved fluorometer. […]

HLA-A*02:01 mutants = assay: Refolding of HLA-A*02:01 position 80 mutants with extending peptides (SEC); type: binding; details: increase in incorrectly folded heavy chain as indicator, preliminary data
Method: Refolding efficiency is judged by comparing peak high (at 45 kDa) with that of the preceding oligomeric peak.
It is possible that replacing T80 with amino acids Ile, Lys, and Asn as found in other common alleles may affect refolding. […] Whether a flexible F pocket in HLA-C*03:07 can be created was tested by exchange against the amino acids from HLA-A*02:01, either Thr80 or the combination of Thr80 and Thr142 together. Other amino acids at position 80 or mutate other alleles at position 80 and 142 were introduced as necessary.
HLA-A*02:01 = biological target: T1, HLA-A*02:01 (Homo sapiens, UniProt P04439, D140Y/D185E/D98H/E176V/E277Q/G131W/G231S/I119V/I121R/I166T/I218V/L300P/L318F/N151K/N90K/P208A/P217A/Q86G/Q94H/R138H/R169H/T345S); assay: Thermal denaturation assay (differential scanning fluorimetry) of HLA-A*02:01-β2m-peptide complexes; type: binding; details: for relative stability of HLA-peptide complex: thermal denaturation
T1 construct: HLA-A*02:01 class I heavy chain ectodomain (residues 21-274); made in house
Method: HLA-A*02:01-β2m-peptide complexes with the various different peptides were analyzed for thermal denaturation by differential scanning fluorimetry using a LightCycler 480 (Roche). HLA-A*02:01-β2m-peptide complexes with different peptides at 100 μM in reaction buffer (20 mM Tris-HCl pH 7.5, 150 mM NaCl) were used as stock solutions. Each reaction mixture constituted of 1-2 μl protein complex stock solution, 2l of SYPRO Orange dye (100×, Invitrogen) made up to 20 μl in reaction buffer in a 96-well white plate compatible with the instrument. A temperature gradient from 20° C.-85° C. at steps of 0.06° C./sec and 10 acquisitions/° C. was used for the experiment. Each experiment with individual protein-peptide complex was repeated thrice. A melt curve of the total fluorescence of the run was plotted against temperature. The minima of the first derivative of the melt curve from raw fluorescence data (temperature differential of absolute fluorescence versus temperature) provided the meting temperature (Tm) for individual HLA-A*02:01-β2m peptide complexes (inflection point of the melt curve).
To determine the relative stability of the individual HLA-A*02:01-peptide complexes the inventors followed their thermal denaturation by differential scanning fluorimetry. The melting temperatures (Tm) obtained from the melt curves allowed the inventors to compare the stability of the different complexes (FIG. 3).

HLA-C*03:07 = HLA-C*03:07 (Homo sapiens, UniProt P10321, A176E/A330V/A97T/C25G/C350S/D114A/D33Y/E197K/L119I/L127V/L171W/L218V/M285V/M309V/M331V/N104K/P208H/Q277E/Q291P/R243W/R45H/S101N/S123Y/S140Y/S297R/S48A/T118I/T187L/T329A/T363A/V319A); assay: Refolding of HLA-C*03:07 with peptides (SEC, SDS-PAGE, MALDI-TOF); type: binding; details: gel filtration
Description: Note that A280 scale is different between the three panels.
Core peptides were chosen that have been crystallized in complex with HLA-B as well as HLA-C and designed variants containing C-terminal extensions (Table 3). […] HLA-C can be optimized while producing more HLA-B complexes for crystallization and structure determination using established methods. Crystallization is not major problem, since only HLA I-peptide complexes are crystallized and not ternary complexes containing a receptor. For HLA-A2*02:01, all 9 complexes were successfully crystallized thereby establishing a routine procedure. Structure determination is performed using molecular replacement (MR), using available reference structures.

Chain of KIR2DL1-Fc (P43626 22-245 limits assumed): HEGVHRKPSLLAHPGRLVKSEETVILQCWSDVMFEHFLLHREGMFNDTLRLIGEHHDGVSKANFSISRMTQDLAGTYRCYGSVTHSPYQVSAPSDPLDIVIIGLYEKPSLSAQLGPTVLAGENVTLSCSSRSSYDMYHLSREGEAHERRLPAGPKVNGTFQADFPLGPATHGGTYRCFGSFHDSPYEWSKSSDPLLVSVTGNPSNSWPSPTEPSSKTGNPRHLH

LSSPVTKSF [L9F, core self-peptide for HLA-B*57:01, reference compound]
KIR2DL1-Fc binding to allele-mismatched HLA-B*57:01-peptide complex (KIR2DL1-Fc): does not bind | binding of Alexa Fluor-647 HLA-B*57:01/peptide tetramer to YTS cells [1]: bound to YTS cells, regardless whether KIR3DL1 was expressed or not

YFDPANGKFK [Y10K]
KIR2DL1-Fc binding to HLA-C*04:01-peptide complex (KIR2DL1-Fc): abrogated

LSSPVTKSFDGK [L12K]
binding of Alexa Fluor-647 HLA-B*57:01/peptide tetramer to YTS cells [1]: bound to YTS cells, regardless whether KIR3DL1 was expressed or not | induction of YTS NK cell killing of target cells [2]: induce YTS NK cell killing; also recorded: appears to induce killing

GLKEGIPALDN [G11N, T. gondii C-terminally extending peptide]
refolding efficiency of HLA-A*02:01 position 80 mutants with peptide (order of residues) (HLA-A*02:01 mutants): Ile80 (HLA-B)>Thr80 (HLA-A)>Lys80 (HLA-C*04:01)>Asn80 (HLA-C*03:07)

GLKEGIPAL
melting temperature (Tm) of HLA-A*02:01-peptide complex (HLA-A*02:01; differential scanning fluorimetry, SYPRO Orange, 20-85 °C): 63 °C | relative stability of HLA-peptide complex (HLA-A*02:01): less stable complex as compared to peptide GLLPELPAV; also recorded: as stable as those with longer peptides

GAVDPLLAL [G9L, reference compound]
refolding of HLA-C*03:07 with peptide (HLA-C*03:07): protein complex of proper size was observed

YFDPANGKF [Y9F, reference compound]
KIR2DL1-Fc binding to HLA-C*04:01-peptide complex (KIR2DL1-Fc): strong binding signal

GAVDPLLALD [G10D]
refolding of HLA-C*03:07 with peptide (HLA-C*03:07): protein complex of proper size was observed

YLSPIASPLLDGKSLR [T. gondii C-terminally extending peptide]
difference in Tm between complex with extended peptide and with nested peptide (HLA-A*02:01; extended versus equivalent nested peptide): about 7 °C

GLLPELPAVGGNE
relative stability of HLA-peptide complex (HLA-A*02:01): as stable as

YFDPANGKFDN [Y11N]
KIR2DL1-Fc binding to HLA-C*04:01-peptide complex (KIR2DL1-Fc): abrogated

LSSPVTKSFK [L10K]
induction of YTS NK cell killing of target cells [2]: does not induce any killing
